Test results as given in US10287298B2, “Nitrogen-containing analogs of salinomycin, synthesis and use against cancer stem cells and malaria” (Centre National de la Recherche Scientifique (CNRS), priority 2014, dated 2019).
Entries after “also recorded” stand apart in the source; their conditions may differ.

Columns and labels:
HMLER CD24low cells [1] = test: Intracellular sodium measurement (SBFI-AM); assay type: cell-based, Human; conditions: 5 min treatment
Method: Intracellular sodium measurement: Sodium and potassium buffers (10 mM HEPES, 1 mM CaCl2, 1 mM MgCl2, 130 mM Sodium-D-Gluconate or Potassium-D-Gluconate, 30 mM NaCl/KCl) were mixed at different ratios to produce five buffers with various sodium concentrations (0, 20, 40, 80, 160 mM). Nigericin (N7143, Sigma, 10 μM) and monensin (M5273, Sigma, 10 μM) were used to equilibrate the intracellular sodium concentration and establish a calibration curve. HMLER CD24low cells were harvested and re-suspended in ECS buffer (15 mM HEPES, 5.4 mM KCl, 140 mM NaCl, 10 mM Glucose, 1 mM MgCl2, 1.8 mM CaCl2, 0.1% BSA, pH 7.6) containing 10 μM of the sodiumspecific probe (SBFI-AM, S-1263, Molecular Probes®) and 0.2% Pluronic F-127 (P2443, Sigma) and were incubated for 1 h in the dark at 37° C. Then, cells were washed to remove excess dye and incubated for an additional 30 min in ECS buffer. […] Each well was sequentially excited at 340 and 370 nm and emission was recorded at 500 nm. The spectral response of SBFI upon sodium binding was assessed by excitation ratio measurement (340/370 nm). Measurements were performed on a Perkin Elmer Wallac 1420 Victor2 Microplate Reader at 37° C.

TICs = conditions: cited from earlier work
Cell lines = test: Apoptosis by Annexin V-FITC and PI staining with or without NAC; assay type: cell-based; conditions: 500 nM, 48 h
Method: FIG. 5: Salinomycine analogue—induced cell death is inhibited by the ROS scavenger N-acetylcysteine (NAC). Cell lines were incubated with or without 500 nM of Sal analogues for 48 h. Apoptosis was evaluated by Annexin V-FITC and PI staining, and FACS analysis. All data are expressed as means±s.d. from three individual experiments (*; P<0.05)
Salinomycine analogue-induced cell death is inhibited by the ROS scavenger N-acetylcysteine (NAC). Cell lines were incubated with or without 500 nM of Sal analogues for 48 h. Apoptosis was evaluated by AnnexinV-FITC and PI staining, and FACS analysis.

MCF-7 xenograft = test: Xenograft tumor formation; assay type: in vivo, mice; conditions: 3 mg per kg body weight per day, intra peritoneal
Method: Human breast cancer cell line MCF-7 cells cultures were collected, enzymatically dissociated, washed in PBS, and resuspended in PBS/Matrigel mixture (1:1 volume). 0.1 ml of this mixture was then implanted in the mammary fat pad of 5-week-old female AthymicNude-Fox1nu mice (Harlan, France). The mice were maintained in individually-ventilated cages (Tecniplast, France) under constant temperature and humidity; all experiments were performed under laminar flow (Tecniplast France). The mice received estradiol supplementation (0.4 mg/kg) in the same day and 7th day from cell injection, and were observed and palpated for tumor appearance. The mice received Salinomycine analogue (here AM5, 3 mg per kg body weight per day, intra peritoneal injection) every 5 opened days of the week for 33 days. Tumor growth was measured weekly using calipers. Tumor volume was determined using the standard formula: L×W2×0.52, where L and W are the longest and shortest diameters, respectively. […]
Xenograft tumor formation experiments: MCF-7 cell cultures were collected, enzymatically dissociated, washed with PBS, and re-suspended in a PBS/Matrigel mixture (1:1 v/v). […] Tumor growth was measured weekly using calipers. Tumor volume was determined using the standard formula: L×W2×0.52, where L and W are the longest and shortest diameters, respectively. […]

[2] = Toxicity assessment (histology, body weight); assay type: in vivo, mice; conditions: effective dose
Source text: FIG. 15 is a graph representing the mice body-weight during treatment with AM5. Error bars for mice body weight represent s.d. and correspond to correspond to five animals per group.
Histology. Organs from mice were removed at time of sacrifice. For morphological analyses, organs were fixed with 4% paraformaldehyde, paraffin embedded, and 4-μm sections were stained with hematoxylin and eosin (H&E). Sections were scanned at high resolution using a slide scanner (NanoZoomer 2.0-HT, Hamamatsu, Massy, France).

HMLER CD24low cells [3] = test: Reactive Oxygen Species (ROS) levels by flow cytometry (CM-H2DCF-DA); assay type: cell-based, Human; conditions: cells treated for 48 h
Method: Reactive Oxygen Species (ROS) levels were measured by flow cytometry or by confocal scanning immunofluorescence microscopy using CM-H2DCF-DA (C6827, invitrogen). Briefly, U2OS and HMLER CD24low cells were treated as indicated in FIG. 11 (30 nM, 500 nM or 1 μM of salinomycine, AM5 or AM23 or untreated during 48 h). Then, these cells were trypsined and incubated with 5 μM CM-H2DCF-DA at 37° C. for 40 min, washed once with PBS and were counterstained with DAPI (0.5 μg/ml) to exclude non-viable cells. The mean fluorescence intensity was determined as ROS production by flow cytometry with LSRFortessa™ cytometer (BD Bioscience, San Jose, Calif.). For immunofluorescence microscopy analysis, cells were seeded on coverslips and were treated with salinomycine derivatives (injection in culture medium then treatment during 24 h, 48 h and 72 h). LysoTracker® Red DND-99 (L-7528, Life technologies) was used to visualize lysosomes. Then, cells were fixed with 4% PFA/PBS. DAPI was used to visualize nuclear DNA. Cell images were obtained using a Deltavision real-time microscope (Applied Precision) or an ApoTome.2 microscope (Zeiss). ImageJ was used for further image processing.
FACS analysis of ROS in cells treated for 48 h is represented in FIG. 17.

Structure (SMILES)	intracellular sodium (HMLER CD24low cells [1])	efficacy in reducing the amount of TICs relative to paclitaxel (TICs) [fold]	cell death (apoptosis) mechanism (Cell lines)	tumor volume and tumor weight (MCF-7 xenograft; 33 days)	tumor growth (MCF-7 xenograft; MCF-7 xenograft-bearing mice)	body weight throughout treatment [2]	generic toxicity (integrity of peripheral tissues) ([2]; H&E histology)	ROS production under pharmacological inhibition of Cathepsin B (HMLER CD24low cells [3])
CCC(C(=O)O)[C@H]1CC[C@H](C)C([C@@H](C)[C@H](O)[C@H](C)C(=O)[C@H](CC)[C@H]2O[C@]3(C=C[C@@H](O)[C@]4(CC[C@@](C)([C@H]5CC[C@](O)(CC)[C@H](C)O5)O4)O3)[C@H](C)C[C@@H]2C)O1 (stereo partly drawn) [Salinomycine, Salinomycin]	induced a fast increase in intracellular sodium	100	induce cell death through lysosomal ROS production	–	–	–	–	–
C#CCN[C@@H]1C=C[C@]2(O[C@H]([C@@H](CC)C(=O)[C@@H](C)[C@@H](O)[C@H](C)C3O[C@@H](C(CC)C(=O)O)CC[C@@H]3C)[C@@H](C)C[C@H]2C)O[C@@]12CC[C@@](C)([C@H]1CC[C@](O)(CC)[C@H](C)O1)O2 (stereo partly drawn) [AM5, Sal-Propargylamine]	–	–	induce cell death through lysosomal ROS production	lower	inhibits breast cancer tumor growth; also recorded: prevented tumor growth	constant body weight	No generic toxicity was observed	prevents AM5 from inducing ROS production
